The text below walks through data of PubChem BioAssay AID977607 (Broad Institute, 2014).

The source made the active and inactive calls.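 Rule for the calls: active = curve reaches 40% activation over neutral controls at an AC40 no higher than the top valid tested concentration; inconclusive = no clear call, values can overlap the other calls; inactive = signal moving opposite to the expected increase, and the rest.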

This experiment relates to INS-1E GLuc insulin secretion reporter, luminescence, 2-3 h. Briefly: activators of glucose-dependent insulin secretion, dose response, cell-based, INS-1E, Gaussia luciferase, luminescence, cherry-pick, set 2 (AID 977607).
With `FC(F)(F)c1cc(CCN2CCNC[C@@H]2CC2CCCCC2)cc(C(F)(F)F)c1`, the AC40 is 5.27 µM. As for `CC(C)(C)c1ccccc1OCC(O)CN1CCN(c2ccccn2)CC1` (stereo not drawn), the AC40 was 13.7 µM. To `CCOC(=O)c1ccc(Nc2ncnc3ccc(C)cc23)cc1` belongs 12.4 µM; to `Cc1cccc(-c2ccc(C3[C@@H]4CN(C(=O)C5CCCCC5)C[C@H]3N4)cc2)c1` (stereo partly drawn), 18.5 µM. Turning to `O=C(Nc1nnc(-c2ccccc2SCc2ccccc2F)s1)Nc1ccccc1F`, the AC40 is 16.7 µM.

As for `CC(C)CC#Cc1ccc2c(c1)O[C@H](CN(C)C(=O)C1CCCCC1)[C@@H](C)CN([C@@H](C)CO)S2(=O)=O`, the AC40 is 10.2 µM. To `CC(C)(C(=O)N1CCC1(C)C(=O)NS(=O)(=O)c1ccc(Br)cc1)c1ccccc1` (stereo not drawn) belongs 12.7 µM; to `COC(=O)C1=C(C)N(Cc2ccc(C(F)(F)F)cc2)C(=NCc2ccccc2)NC1c1ccc(Cl)cc1` (stereo not drawn), 8.24 µM; to `COc1cc(/C=N/NC(=O)Nc2ccccc2)ccc1OCCOc1ccccc1C`, 2.29 µM. Then `Cc1cc(C)cc(OCCCN2CCC(C(O)(c3ccccc3)c3ccccc3)CC2)c1`, with 13 µM. `COc1cc2cnc(-c3ccsc3)cc2cc1OC`: the AC40 was 0.826 µM.

For `CCOC(=O)c1cc2sccc2n1CC(=O)N1c2ccccc2CC1C` (stereo not drawn), the AC40 was 3.59 µM. Then `COc1ccc(-c2ccncc2)cc1OC`, with 13 µM.

In the case of `CC1(C(=O)NS(=O)(=O)c2ccc(C#N)cc2)CCN1C(=O)C1(c2ccccc2)CCCC1` (stereo not drawn), the AC40 is > 35 µM (inactive). Then `O=C1c2cccnc2C(Nc2cccc(F)c2)N1Cc1ccco1` (stereo not drawn), with 28.5 µM; and `COc1cc(/C=N/NC(=O)C(C)n2nnc3ccccc32)ccc1O` (stereo not drawn), with 6.55 µM. Then `CN(C)S(=O)(=O)c1cccc(-n2sc3ccccc3c2=O)c1`, with 4.6 µM; and `COc1ccc(C(=O)C2CCCN(C(=O)c3n[nH]c4c3CCCC4)C2)cc1OC` (stereo not drawn), with 3.89 µM. Then `O=C(N/N=C\c1ccc(CNS(=O)(=O)c2ccc(Cl)cc2)o1)C(=O)Nc1ccc(Oc2ccccc2)cc1`, with 13.9 µM; and `COc1ccc(C(CCNCc2ccc(OC(C)C)cc2)C(C)C)cc1` (stereo not drawn), with 21.7 µM; and `COc1ccc(-c2nc(CCl)cs2)cc1OC`, with > 35 µM (inactive). Consider `N#Cc1ccc(-c2ccc([C@@H]3[C@H]4CNC[C@@H]3N4Cc3cc(F)ccc3F)cc2)cc1`, for which the AC40 is 16 µM. In the case of `CNC[C@H](CC1CCCCC1)NC[C@H](Cc1ccccc1)NCCC12CC3CC(CC(C3)C1)C2`, the AC40 is 8.32 µM. To `COc1cc(CN2[C@@H]3CNC[C@H]2C3c2ccc(/C=C/c3ccccc3)cc2)cc(OC)c1` (stereo partly drawn) belongs 10.3 µM; to `O=C1Nc2cnc(Cl)nc2Nc2ccccc21`, > 35 µM (inactive). To `COc1ccc(-c2ccc(SCc3cccnc3)nn2)cc1OC` belongs 0.451 µM.

Regarding `CCc1c(C)sc(NC(=O)c2cc(-c3ccc(OC)c(OC)c3)on2)c1C#N`, the AC40 was 9.5 µM. To `Cc1cc(Nc2ccc(Cl)cc2)nc(NCc2ccccc2)n1` belongs 9.24 µM; to `Cc1nc(NC(=O)c2cccc(-c3cc4ccccc4oc3=O)c2)ccc1Br`, 12.7 µM; to `NS(=O)(=O)c1ccc(NC(=S)N2CCN(c3ccc(Cl)c(Cl)c3)CC2)cc1`, 9.46 µM. To `CC(C)Nc1nc(NC(C)(C)C)nc(Oc2ccc(=O)n(C)n2)n1` belongs 29.2 µM. Then `N#Cc1cccc(-c2ccc([C@@H]3[C@@H]4CN(S(=O)(=O)c5ccc(-c6ccccc6)cc5)C[C@H]3N4)cc2)c1`, with 3.49 µM; and `COc1ccc(C2=NN(C(=O)CCCC(=O)O)C(c3cccs3)C2)cc1OC` (stereo not drawn), with 11.6 µM. Turning to `CN(C)CCOc1ccc(-c2c(-c3ccsc3)sc3ccccc23)cc1`, the AC40 was 10.9 µM. Then `Cc1ccc(NC(=O)c2oc3ccc(S(=O)(=O)N4CCOCC4)cc3c2C)cc1C`, with 15.6 µM; and `CNc1ccc2ncc(-c3ccc(OC)c(OC)c3)n2n1`, with 7.77 µM; and `CCCCc1c(-c2ccccc2OC)ncn1CCc1ccccc1`, with 16.7 µM. Then `CC(C)(C)OC(=O)N[C@@H](Cc1ccccc1)c1nnc(S(=O)(=O)Cc2ccccc2)o1`, with 3.69 µM; and `Cc1cccc(S(=O)(=O)N2C[C@@H]3N[C@H](C2)C3c2ccc(-c3ccccc3F)cc2)c1` (stereo partly drawn), with 5.72 µM. In the case of `COc1ccc(C(C)NCCC(c2ccc(OC(C)C)cc2)c2ccccc2OC)cc1` (stereo not drawn), the AC40 was 7.95 µM. Take `Fc1ccccc1/C=N/n1c(C2CCCCC2)n[nH]c1=S`: the AC40 is 18.5 µM.

On to `COc1ccc(/C=N/NC(=O)c2ccc(COc3ccccc3Cl)o2)c(OC)c1C`, for which the AC40 is 5.44 µM.

Regarding `CONc1nc(NC(C)(C)C)nc(OCC#N)n1`, the AC40 was > 35 µM (inactive). To `CC(C)Cn1c(=O)n(C)c(=O)c2[nH]cnc21` belongs 9.51 µM; to `CC(=O)N(C1CC(C)C(C#N)(C#N)C1(C#N)C#N)N(C)C` (stereo not drawn), 1.85 µM; to `C=CCn1c(=NC(=O)c2cc(Cl)sc2Cl)sc2cc(S(N)(=O)=O)ccc21`, 5.55 µM.

As for `COc1cc2nc(N3CCN(c4cc(C)ccc4C)CC3)nc(N)c2cc1OC`, the AC40 was 8.44 µM.

As for `CCOc1ccc(CN2C(=O)c3ccccc3C2=O)cc1C(=O)Nc1nnc(SCC)s1`, the AC40 was 13.6 µM. As for `O=C1CC(Sc2nnc(-c3ccccc3)o2)C(=O)N1c1ccccc1` (stereo not drawn), the AC40 is 12.1 µM.

For `NC(c1csc(Nc2ccc(C(F)(F)F)cn2)n1)C1CCCCC1` (stereo not drawn), the AC40 was 9.81 µM. To `NC(CCc1ccccc1)c1csc(Nc2ccc(C(F)(F)F)cn2)n1` (stereo not drawn) belongs 10.4 µM. Then `COc1ccccc1C(=O)NC(=S)Nc1ccc2[nH]c(=O)[nH]c2c1`, with 25.1 µM; and `Cc1ccc(-n2sc3cc(F)ccc3c2=O)c(C)c1`, with 1.94 µM; and `CC(=O)Oc1ccc(Cl)cc1/C=C/c1ccc2ccccc2n1`, with 24.9 µM. Then `CCOC(=O)c1c(-c2ccc(-c3ccccc3)cc2)csc1NC(=O)CNCCN(C)C`, with 8.58 µM; and `O=C(NCc1ccccn1)c1coc(=O)c(Br)c1`, with 2.01 µM. As to `O=C(N/N=C/c1ccc(O)cc1O)NC12CC3CC(CC(C3)C1)C2`, the AC40 was 18.1 µM.

As to `CCN1CCN(Cc2ccc(NC(=O)c3cccc(-c4ccc5nc(NC(=O)C6CC6)sc5n4)c3)cc2C(F)(F)F)CC1`, the AC40 was 11.4 µM. To `CCOc1ccc2nc(NCCNC(=O)Nc3ccccc3)c(C#N)cc2c1` belongs 5.63 µM. To `COc1ccc(-c2nnc3sc(-c4cccs4)nn23)cc1OC` belongs 22 µM; to `CNc1nc(-c2ccccc2)[n+](-c2ccc(C)cc2)s1`, 2.16 µM.

On to `CC(=O)Nc1sc(N/N=C\c2cccc(Cl)c2)nc1-c1cccs1`, for which the AC40 is 6.6 µM.

With `OC(c1ccccc1)(c1ccccc1)C1CCN(CCCOc2ccc(-c3ccc(F)cc3F)cc2)CC1`, the AC40 was 3.89 µM.

For `COc1ccc(/C=N/NC(=O)Cn2nnc3ccccc32)cc1OC`, the AC40 is 24.4 µM. With `NC(N)=N/N=C/c1ccc(N(c2ccccc2)c2ccccc2)cc1`, the AC40 is 5.68 µM. Turning to `O=C(N/N=C/c1ccco1)c1cc(-c2ccc3ccccc3c2)n[nH]1`, the AC40 was 4.19 µM. Then `CC(C)C(Cl)=NOC(=O)Nc1ccc(S(N)(=O)=O)cc1`, with 10.2 µM; and `O=S(=O)(c1ccccc1F)N1C[C@@H]2N[C@H](C1)C2c1ccc(/C=C/c2ccccc2)cc1` (stereo partly drawn), with 6.46 µM.
